According to patent US9944607B2, “Thiohydantoin derivatives and uses thereof” (Whitehead Institute for Biomedical Research, priority 2012, dated 2018):
In brackets after ≈: the same amount, converted by molar mass. Where two headings read alike, the source gives them in different places.

Legend:
[1] = tested on: Candida albicans CaCi-2; test: Primary assay: C. albicans CaCi-2 growth inhibition (Alamar Blue); format: cell-based; conditions: for Growth Inhibition Activity, IC50 (μM), C. albicans (n = 3) CaCi-2 / IC50: 48 hours, tested up to 26 μM, n = 3; for IC50: read-out: Growth Inhibition Activity, IC50 (μM), C. albicans (n = 3) CaCi-2
[2] = tested on: Candida albicans CaCi-17; test: Primary assay: C. albicans CaCi-17 growth inhibition (Alamar Blue); format: cell-based; conditions: for Growth Inhibition Activity, IC50 (μM), C. albicans (n = 3) CaCi-17 / IC50: 48 hours, tested up to 26 μM, n = 3; for IC50: read-out: Growth Inhibition Activity, IC50 (μM), C. albicans (n = 3) CaCi-17
[3] = tested on: NIH-3T3 mammalian fibroblasts; test: Counterscreen mammalian cell toxicity assay (Alamar Blue); format: cell-based, murine; conditions: n = 1, 48 hours, tested up to 26 μM
Protocol: Quiescent murine fibroblasts were subjected to incubation with compounds of interest for 48 hours. Subsequent cell viability was determined via measuring Alamar Blue fluorescence.
Procedures • After overnight culture, pin compounds into wells at 100 nL/well using the CyBio CyBi-Well pinning instrument. • Return the plates to the tissue culture incubator and incubate the culture for an additional 48 hours at 37° C. under 5% CO2. • At the completion of this incubation, add Alamar Blue solution diluted 1:40 in PBS to each well (10 μL/well) to achieve a final dilution of 1:200. • Incubate the plates for an additional 2-3 hours at 37° C. under 5% CO2. • Read the Relative Fluorescence Intensity (RFU) of wells on a standard plate reader as a measure of relative cell growth. […] 4.4.

[4] = Solubility in PBS pH 7.4 with 1% DMSO; conditions: for solubility at 24 h: phosphate buffered saline with 1% DMSO, pH 7.4, aqueous buffer, kinetic from dmso stock
Protocol: Solubility was determined in phosphate buffered saline (PBS) pH 7.4 with 1% DMSO. Each compound was prepared in duplicate at 100 μM in both 100% DMSO and PBS with 1% DMSO. Compounds were allowed to equilibrate at room temperature with a 250 rpm orbital shake for 24 hours. After equilibration, samples were analyzed by UPLC-MS (Waters, Milford, Mass.) with compounds detected by SIR detection on a single quadrupole mass spectrometer. The DMSO samples were used to create a two-point calibration curve to which the response in PBS was fit.

[5] = Table 4, PBS pH 7.4 with 1% DMSO, 24 hours, room temperature
[6] = read-out: Growth Inhibition Activity, IC50 (μM), 3T3 Fibroblasts (n = 1), Table 4

Cc1ccc(N2C(=O)C3(CCCCC3)NC2=S)cc1 [compound 56604856]
Growth Inhibition Activity, IC50 (μM), C. albicans (n = 3) CaCi-2 ([1]; Table 7): inactive | Growth Inhibition Activity, IC50 (μM), C. albicans (n = 3) CaCi-17 ([2]; Table 7): inactive | Growth Inhibition Activity, IC50 (μM), 3T3 Fibroblasts (n = 1) ([3]; Table 7): Inactive | solubility at 24 h [4]: 5.9 µM (≈ 1.62 µg/mL)

CCCCN1C(=O)N(c2ccc(C)cc2)C2(CCCCC2)C1=S [compound 56604857]
Growth Inhibition Activity, IC50 (μM), C. albicans (n = 3) CaCi-2 ([1]; Table 6): inactive | Growth Inhibition Activity, IC50 (μM), C. albicans (n = 3) CaCi-17 ([2]; Table 6): inactive | IC50 ([3]; Mus musculus, NIH3T3, read-out: Growth Inhibition Activity, IC50 (μM), 3T3 Fibroblasts (n = 1), Table 6): 20.9 µM | solubility at 24 h [4]: < 1 µM

CCOC(=O)N1C(=O)C2(CCCCC2)N(Cc2ccccc2)C1=S [compound 56604878]
IC50 ([1]; Table 4): 3.8 µM | IC50 ([2]; Table 4): 22.8 µM | Growth Inhibition Activity, IC50 (μM), 3T3 Fibroblasts (n = 1) ([3]; Table 4): Inactive | PBS Solubility [4, 5]: 7.2 µM

CCOC(=O)N1C(=O)C2(CCCCC2)N(c2ccc(-c3ccccc3)cc2)C1=S [compound 56604882]
Growth Inhibition Activity, IC50 (μM), C. albicans (n = 3) CaCi-2 ([1]; Table 4): inactive | Growth Inhibition Activity, IC50 (μM), C. albicans (n = 3) CaCi-17 ([2]; Table 4): inactive | IC50 [3, 6]: 9.8 µM | PBS Solubility [4, 5]: <1.0 µM

Cc1ccc(N2C(=S)N(C(=O)OC(C)C)C(=O)C23CCCCC3)cc1 [compound 56604859]
IC50 ([1]; Table 3): 5.9 µM | Growth Inhibition Activity, IC50 (μM), C. albicans (n = 3) CaCi-17 ([2]; Table 3): inactive | Growth Inhibition Activity, IC50 (μM), 3T3 Fibroblasts (n = 1) ([3]; Table 3): Inactive | PBS Solubility ([4]; pH 7.4): <1.0 µM

CCOC(=O)N1C(=S)N(c2ccc(C)cc2)C(=O)C12CCCCC2 [compound 56604852]
Growth Inhibition Activity, IC50 (μM), C. albicans (n = 3) CaCi-2 ([1]; Table 6): inactive | Growth Inhibition Activity, IC50 (μM), C. albicans (n = 3) CaCi-17 ([2]; Table 6): inactive | Growth Inhibition Activity, IC50 (μM), 3T3 Fibroblasts (n = 1) ([3]; Table 6): Inactive | solubility at 24 h [4]: < 1 µM

CCOC(=O)N1C(=S)NC(=O)C12CCCCC2 [compound 56604829]
Growth Inhibition Activity, IC50 (μM), C. albicans (n = 3) CaCi-2 ([1]; Table 7): inactive | Growth Inhibition Activity, IC50 (μM), C. albicans (n = 3) CaCi-17 ([2]; Table 7): inactive | Growth Inhibition Activity, IC50 (μM), 3T3 Fibroblasts (n = 1) ([3]; Table 7): Inactive | solubility at 24 h [4]: > 100 µM

CCOC(=O)N1C(=O)C2(CCCCC2)N(c2ccc(C(F)(F)F)cc2)C1=S [compound 56604813]
IC50 ([1]; Table 4): 0.8 µM | IC50 ([2]; Table 4): 16.2 µM | IC50 [3, 6]: 12.5 µM | PBS Solubility ([4]; pH 7.4): <1.0 µM

CCCCN1C(=O)C2(CCCCC2)N(c2ccc(C)cc2)C1=S [compound 56604814]
Growth Inhibition Activity, IC50 (μM), C. albicans (n = 3) CaCi-2 ([1]; Table 3): inactive | Growth Inhibition Activity, IC50 (μM), C. albicans (n = 3) CaCi-17 ([2]; Table 3): inactive | IC50 ([3]; read-out: Growth Inhibition Activity, IC50 (μM), 3T3 Fibroblasts (n = 1), Table 3): 24.2 µM | PBS Solubility ([4]; pH 7.4): <1.0 µM

Cc1ccc(N2CC(=O)NC2=S)cc1 [compound 56604844]
Growth Inhibition Activity, IC50 (μM), C. albicans (n = 3) CaCi-2 ([1]; Table 7): inactive | Growth Inhibition Activity, IC50 (μM), C. albicans (n = 3) CaCi-17 ([2]; Table 7): inactive | IC50 ([3]; Mus musculus, NIH3T3, read-out: Growth Inhibition Activity, IC50 (μM), 3T3 Fibroblasts (n = 1), Table 7): 20.7 µM | solubility at 24 h [4]: < 1 µM

CCOC(=O)N1C(=O)C(C)(C)N(c2ccc(C)cc2)C1=S [compound 56604873]
Growth Inhibition Activity, IC50 (μM), C. albicans (n = 3) CaCi-2 ([1]; Table 5): inactive | Growth Inhibition Activity, IC50 (μM), C. albicans (n = 3) CaCi-17 ([2]; Table 5): inactive | Growth Inhibition Activity, IC50 (μM), 3T3 Fibroblasts (n = 1) ([3]; Table 5): Inactive

COC(=O)N1C(=O)C2(CCCCC2)N(c2ccc(C)cc2)C1=S [compound 3951437]
IC50 ([1]; Table 3): 1.9 µM | IC50 ([2]; Table 3): 17.1 µM | Growth Inhibition Activity, IC50 (μM), 3T3 Fibroblasts (n = 1) ([3]; Table 3): Inactive

CCOC(=O)N1C(=O)C2(CCCCC2)N(c2ccc(C(C)(C)C)cc2)C1=S [compound 56604837]
Growth Inhibition Activity, IC50 (μM), C. albicans (n = 3) CaCi-2 ([1]; Table 4): inactive | Growth Inhibition Activity, IC50 (μM), C. albicans (n = 3) CaCi-17 ([2]; Table 4): inactive | IC50 [3, 6]: 16.5 µM | PBS Solubility [4, 5]: <1.0 µM

Cc1ccc(N2C(=O)NC(=O)C23CCCCC3)cc1 [compound 56604883]
Growth Inhibition Activity, IC50 (μM), C. albicans (n = 3) CaCi-2 ([1]; Table 7): inactive | Growth Inhibition Activity, IC50 (μM), C. albicans (n = 3) CaCi-17 ([2]; Table 7): inactive | Growth Inhibition Activity, IC50 (μM), 3T3 Fibroblasts (n = 1) ([3]; Table 7): Inactive | solubility at 24 h [4]: 14 µM (≈ 3.62 µg/mL)

Cc1ccc(N2C(=S)N(C(=O)Oc3ccccc3)C(=O)C23CCCCC3)cc1 [CID 56604875]
Activity against C. albicans ([1]; CaCi-2, or both test strains (CaCi-2, CaCi-17) where the sentence names none): no activity | Activity against C. albicans CaCi-17 as worded in the text [2]: no activity
